Reference: US20170226120A1, “INHIBITORS OF HIF PROLYL HYDROXYLASE” (MERCK SHARP & DOHME CORP., priority 2014, published 2017)

molecular target: T1, human HIF-PHD2 (Homo sapiens, UniProt Q9GZT9); assay: HIF-PHD2 inhibition, time resolved fluorescence assay of HIF-1α peptide hydroxylation; format: biochemical; details: FLAG-tagged full length PHD2; 0.2 μM 2-oxoglutarate, 0.5 μM HIF-1α peptide
T1 construct: FLAG-tagged full length PHD2 expressed in and purified from baculovirus-infected Sf9 cells; FLAG; made in house; host or cells: baculovirus-infected Sf9 cells
T1 sequence (Q9GZT9 whole entry): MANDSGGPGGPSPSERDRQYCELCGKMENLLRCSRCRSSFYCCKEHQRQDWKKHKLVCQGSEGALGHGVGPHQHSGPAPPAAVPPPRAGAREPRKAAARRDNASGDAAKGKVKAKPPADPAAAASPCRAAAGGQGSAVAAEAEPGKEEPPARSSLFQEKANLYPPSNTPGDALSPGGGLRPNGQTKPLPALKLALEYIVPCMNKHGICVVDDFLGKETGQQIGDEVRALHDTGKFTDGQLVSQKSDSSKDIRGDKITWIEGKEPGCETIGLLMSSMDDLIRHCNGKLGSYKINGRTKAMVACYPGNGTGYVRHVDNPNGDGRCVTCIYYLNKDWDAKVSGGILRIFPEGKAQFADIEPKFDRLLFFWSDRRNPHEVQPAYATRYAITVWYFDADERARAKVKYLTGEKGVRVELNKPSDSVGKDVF
Procedure: To each well of a 384-well plate, 1 μL of test compounds in DMSO (final concentration ranging from 0.3 nM to 10 uM) were added into 20 μl of assay buffer (50 mM Tris pH 7.4/0.01% Tween-20/0.1 mg/ml bovine serum albumin/10 μM ferrous sulfate/1 mM sodium ascorbate/20 μg/ml catalase) containing 0.15 μg/ml FLAG-tagged full length PHD2 expressed in and purified from baculovirus-infected Sf9 cells. After a 5 min preincubation at room temperature, the enzymatic reactions were initiated by the addition of 4 μL of substrates {final concentrations of 0.2 μM 2-oxoglutarate and 0.5 μM HIF-1α peptide biotinyl-[…] […] After incubation for 45 minutes at room temperature, the reactions were terminated by the addition of a 25 μL quench/detection mix to a final concentration of 1 mM ortho-phenanthroline, 0.1 mM EDTA, 0.5 nM anti-(His)6 LANCE reagent (Perkin-Elmer Life Sciences), 100 nM AF647-labeled streptavidin (Invitrogen), and 2 μg/ml (His)6-VHL complex {S. Tan Protein Expr. Purif.

SMILES	IC50 [nM]
O=C(O)CNC(=O)c1c(O)c2c(n(Cc3ccccc3F)c1=O)COC2 [Example 35, 2-(1-(2-fluorobenzyl)-4-hydroxy-2-oxo-1,2,5,7-tetrahydrofuro[3,4-b]pyridine-3-carboxamido)acetic acid]	4.6
CC(C)c1ccc(Cn2c3c(c(O)c(C(=O)NCC(=O)O)c2=O)COC3)cc1 [Example 29, 2-(4-hydroxy-1-(4-isopropylbenzyl)-2-oxo-1,2,5,7-tetrahydrofuro[3,4-b]pyridine-3-carboxamido)acetic acid]	2.9
O=C(O)CNC(=O)c1c(O)c2c(n(Cc3ccccc3C(=O)O)c1=O)COC2 [Example 58, 2-((3-((carboxymethyl)carbamoyl)-4-hydroxy-2-oxofuro[3,4-b]pyridin-1(2H,5H,7H)-yl)methyl)benzoic acid]	17.4
Cn1ccc(Cn2c3c(c(O)c(C(=O)NCC(=O)O)c2=O)COC3)n1 [Example 16, 2-(4-hydroxy-1-((1-methyl-1H-pyrazol-3-yl)methyl)-2-oxo-1,2,5,7-tetrahydrofuro[3,4-b]pyridine-3-carboxamido)acetic acid]	7.1
O=C(O)CNC(=O)c1c(O)c2c(n(Cc3cnco3)c1=O)COC2 [Example 20, 2-(4-hydroxy-1-(oxazol-5-ylmethyl)-2-oxo-1,2,5,7-tetrahydrofuro[3,4-b]pyridine-3-carboxamido)acetic acid]	7.4
O=C(O)CNC(=O)c1c(O)c2c(n(Cc3ccc(F)cn3)c1=O)COC2 [Example 14, 2-(1-((5-fluoropyridin-2-yl)methyl)-4-hydroxy-2-oxo-1,2,5,7-tetrahydrofuro[3,4-b]pyridine-3-carboxamido)acetic acid]	6.6
NC(=O)c1ccc(Cn2c3c(c(O)c(C(=O)NCC(=O)O)c2=O)COC3)cc1 [Example 60, 2-(1-(4-Carbamoylbenzyl)-4-hydroxy-2-oxo-1,2,5,7-tetrahydrofuro[3,4-b]pyridine-3-carboxamido)acetic acid]	4.3
Cc1cc(Cn2c3c(c(O)c(C(=O)NCC(=O)O)c2=O)COC3)ccc1Cl [Example 50, 2-(1-(4-chloro-3-methylbenzyl)-4-hydroxy-2-oxo-1,2,5,7-tetrahydrofuro[3,4-b]pyridine-3-carboxamido)acetic acid]	5
O=C(O)CNC(=O)c1c(O)c2c(n(Cc3cccnc3)c1=O)COC2 [Example 37, 3-((3-((carboxymethyl)carbamoyl)-4-hydroxy-2-oxofuro[3,4-b]pyridin-1(2H,5H,7H)-yl)methyl)pyridin-1-ium chloride]	3.3
O=C(O)CNC(=O)c1c(O)c2c(n(Cc3cccc(C(=O)O)c3)c1=O)COC2 [Example 59, 3-((3-((carboxymethyl)carbamoyl)-4-hydroxy-2-oxofuro[3,4-b]pyridin-1(2H,5H,7H)-yl)methyl)benzoic acid]	8
O=C(O)CNC(=O)c1c(O)c2c(n(Cc3ccc4ccccc4c3)c1=O)COC2 [Example 47, 2-(4-hydroxy-1-(naphthalen-2-ylmethyl)-2-oxo-1,2,5,7-tetrahydrofuro[3,4-b]pyridine-3-carboxamido)acetic acid]	6.8
N#Cc1cccc(Cn2c3c(c(O)c(C(=O)NCC(=O)O)c2=O)COC3)c1 [Example 34, 2-(1-(3-cyanobenzyl)-4-hydroxy-2-oxo-1,2,5,7-tetrahydrofuro[3,4-b]pyridine-3-carboxamido)acetic acid]	2.5
C[C@H](NC(=O)c1c(O)c2c(n(Cc3ccc(C(F)(F)F)cc3)c1=O)COC2)C(=O)O [Example 3, (S)-2-(4-hydroxy-2-oxo-1-(4-(trifluoromethyl)benzyl)-1,2,5,7-tetrahydrofuro[3,4-b]pyridine-3-carboxamido)propanoic acid]	36.4
C=Cc1ccc(Cn2c3c(c(O)c(C(=O)NCC(=O)O)c2=O)COC3)cn1 [Example 62, 2-(4-Hydroxy-2-oxo-1-((6-vinylpyridin-3-yl)methyl)-1,2,5,7-tetrahydrofuro[3,4-b]pyridine-3-carboxamido)acetic acid]	3.7
O=C(O)CNC(=O)c1c(O)c2c(n(Cc3cc[nH]n3)c1=O)COC2 [Example 4, 2-(1-((1H-pyrazol-3-yl)methyl)-4-hydroxy-2-oxo-1,2,5,7-tetrahydrofuro[3,4-b]pyridine-3-carboxamido)acetic acid]	9.2
Cn1c2c(c(O)c(C(=O)NCC(=O)O)c1=O)COC2 [Example 55, 2-(1-methyl-4-hydroxy-2-oxo-1,2,5,7-tetrahydrofuro[3,4-b]pyridine-3-carboxamido)acetic acid]	10.4

SMILES	IC50 [nM]
CCn1c2c(c(O)c(C(=O)NCC(=O)O)c1=O)COC2 [Example 54, 2-(1-ethyl-4-hydroxy-2-oxo-1,2,5,7-tetrahydrofuro[3,4-b]pyridine-3-carboxamido)acetic acid]	17.4
O=C(N[C@H](CO)C(=O)O)c1c(O)c2c(n(Cc3ccc(C(F)(F)F)cc3)c1=O)COC2 [Example 1, (R)-3-Hydroxy-2-(4-hydroxy-2-oxo-1-(4-(trifluoromethyl)benzyl)-1,2,5,7-tetrahydrofuro[3,4-b]pyridine-3-carboxamido)propanoic acid]	59.7
O=C(O)CNC(=O)c1c(O)c2c(n(Cc3ccc4[nH]cnc4c3)c1=O)COC2 [Example 65, 2-(1-((1H-Benzo[d]imidazol-5-yl)methyl)-4-hydroxy-2-oxo-1,2,5,7-tetrahydrofuro[3,4-b]pyridine-3-carboxamido)acetic acid]	11.8
N#Cc1ccc(Cn2c3c(c(O)c(C(=O)NCC(=O)O)c2=O)COC3)c(F)c1 [Example 13, 2-(1-(4-cyano-2-fluorobenzyl)-4-hydroxy-2-oxo-1,2,5,7-tetrahydrofuro[3,4-b]pyridine-3-carboxamido)acetic acid]	3
O=C(O)CNC(=O)c1c(O)c2c(n(Cc3cccc(Cl)c3)c1=O)COC2 [Example 38, 2-(1-(3-chlorobenzyl)-4-hydroxy-2-oxo-1,2,5,7-tetrahydrofuro[3,4-b]pyridine-3-carboxamido)acetic acid]	4.3
O=C(O)CNC(=O)c1c(O)c2c(n(Cc3ccc(F)c(F)c3)c1=O)COC2 [Example 31, 2-(1-(3,4-difluorobenzyl)-4-hydroxy-2-oxo-1,2,5,7-tetrahydrofuro[3,4-b]pyridine-3-carboxamido)acetic acid]	2.7
Cc1cc(C(=O)O)ccc1-c1ccc(Cn2c3c(c(O)c(C(=O)NCC(=O)O)c2=O)COC3)cc1 [Example 64, 4′-((3-((Carboxymethyl)carbamoyl)-4-hydroxy-2-oxofuro[3,4-b]pyridin-1(2H,5H,7H)-yl)methyl)-2-methyl-[1,1′-biphenyl]-4-carboxylic acid]	1.2
O=C(O)CNC(=O)c1c(O)c2c(n(Cc3ncco3)c1=O)COC2 [Example 15, 2-(4-hydroxy-1-(oxazol-2-ylmethyl)-2-oxo-1,2,5,7-tetrahydrofuro[3,4-b]pyridine-3-carboxamido)acetic acid]	9.7
CC(c1ccc(C(F)(F)F)cc1)n1c2c(c(O)c(C(=O)NCC(=O)O)c1=O)COC2 (centres unmarked) [Example 56, 2-(4-hydroxy-2-oxo-1-(1-(4-(trfluoromethyl)phenyl)ethyl)-1,2,5,7-tetrahydrofuro[3,4-b]pyridine-3-carboxamido)acetic acid]	19.6
CC(C)(C)c1ccc(Cn2c3c(c(O)c(C(=O)NCC(=O)O)c2=O)COC3)cc1 [Example 30, 2-(1-(4-(tert-butyl)benzyl)-4-hydroxy-2-oxo-1,2,5,7-tetrahydrofuro[3,4-b]pyridine-3-carboxamido)acetic acid]	4
COc1ccc(Cn2c3c(c(O)c(C(=O)NCC(=O)O)c2=O)COC3)cc1 [Example 28, 2-(4-hydroxy-1-(4-methoxybenzyl)-2-oxo-1,2,5,7-tetrahydrofuro[3,4-b]pyridine-3-carboxamido)acetic acid]	2.8
O=C(N[C@@H](CO)C(=O)O)c1c(O)c2c(n(Cc3ccc(C(F)(F)F)cc3)c1=O)COC2 [Example 2, (S)-3-hydroxy-2-(4-hydroxy-2-oxo-1-(4-(trifluoromethyl)benzyl)-1,2,5,7-tetrahydrofuro[3,4-b]pyridine-3-carboxamido)propanoic acid]	109
Cc1cc(Cn2c3c(c(O)c(C(=O)NCC(=O)O)c2=O)COC3)ccc1C#N [Example 44, 2-(1-(4-cyano-3-methylbenzyl)-4-hydroxy-2-oxo-1,2,5,7-tetrahydrofuro[3,4-b]pyridine-3-carboxamido)acetic acid]	3.1
O=C(O)CNC(=O)c1c(O)c2c(n(Cc3cncc(F)c3)c1=O)COC2 [Example 10, 2-(1-((5-fluoropyridin-3-yl)methyl)-4-hydroxy-2-oxo-1,2,5,7-tetrdhydrofuro[3,4-b]pyridine-3-carboxamido)acetic acid]	5.7
O=C(O)CNC(=O)c1c(O)c2c(n(Cc3cccc(F)c3)c1=O)COC2 [Example 43, 2-(1-(3-fluorobenzyl)-4-hydroxy-2-oxo-1,2,5,7-tetrahydrofuro[3,4-b]pyridine-3-carboxamido)acetic acid]	8.4
COc1ccc(Cn2c3c(c(O)c(C(=O)NCC(=O)O)c2=O)COC3)cn1 [Example 51, 2-(4-hydroxy-1-((6-methoxypyridin-3-yl)methyl)-2-oxo-1,2,5,7-tetrahydrofuro[3,4-b]pyridine-3-carboxamido)acetic acid]	6.8
